Measured values published in PubChem BioAssay (NCI).
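GI50: concentration for 50% inhibition of growth. TGI: total growth inhibition.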

Assays:
Assay in all cases: NCI anticancer screen, dose series, 384-well format
[1] = test system: OVCAR-5 ovarian
[2] = test system: SN12C renal
[3] = test system: IGROV1 ovarian
[4] = test system: SF-539 CNS
[5] = test system: M14 melanoma
[6] = test system: ACHN renal
[7] = test system: EKVX NSCLC
[8] = test system: SK-MEL-28 melanoma
[9] = test system: SK-OV-3 ovarian
[10] = test system: HOP-62 NSCLC
[11] = test system: SNB-75 CNS
[12] = test system: NCI/ADR-RES ovarian
[13] = test system: HOP-92 NSCLC
[14] = test system: PC-3 prostate
[15] = test system: SF-295 CNS
[16] = test system: UACC-257 melanoma
[17] = test system: HS 578T breast
[18] = test system: HCT-116 colon
[19] = test system: RXF 393 renal
[20] = test system: MDA-MB-468 breast
[21] = test system: MOLT-4 leukemia
[22] = test system: KM12 colon
[23] = test system: HL-60(TB) leukemia
[24] = test system: MCF7 breast
[25] = test system: NCI-H322M lung
[26] = test system: A498 renal
[27] = test system: NCI-H460 NSCLC
[28] = test system: SK-MEL-5 melanoma
[29] = test system: BT-549 breast
[30] = test system: U251 glioblastoma
[31] = test system: SR leukemia
[32] = test system: T-47D breast
[33] = test system: NCI-H226 lung
[34] = test system: OVCAR-3 ovarian
[35] = test system: HCT-15 colon
[36] = test system: MALME-3M melanoma
[37] = test system: NCI-H23 lung
[38] = test system: SNB-19 CNS
[39] = test system: RPMI-8226 leukemia
[40] = test system: SF-268 CNS
[41] = test system: NCI-H522 lung
[42] = test system: OVCAR-4 ovarian
[43] = test system: COLO 205 colon
[44] = test system: OVCAR-8 ovarian
[45] = test system: HT29 colon
[46] = test system: HCC-2998 colon
[47] = test system: LOX IMVI melanoma
[48] = test system: MDA-MB-231 breast
[49] = test system: MDA-MB-435 melanoma
[50] = test system: A549 NSCLC
[51] = test system: TK-10 renal
[52] = test system: UACC-62 melanoma
[53] = test system: DU-145 prostate
[54] = test system: CAKI-1 renal
[55] = test system: 786-0 renal
[56] = test system: SK-MEL-2 melanoma
[57] = test system: CCRF-CEM leukemia
[58] = test system: SW-620 colon

For CNC(=O)c1cc(COc2nnc(Nc3ccc(Cl)cc3)c3ccoc23)ccn1, the GI50 [1] was 21.9 µM, the TGI [1] was 40.2 µM and the GI50 [2] was 12.9 µM. The TGI [2] was 31.7 µM, the GI50 [3] was 12.2 µM and the TGI [3] was 26.7 µM. The GI50 [4] was 1.49 µM, the TGI [4] was 3.07 µM and the GI50 [5] was 19.3 µM. For the same molecule, the TGI [5] was 38.6 µM, the GI50 [6] was 11.1 µM and the TGI [6] was 25.5 µM. It also gave a GI50 [7] of 13.6 µM, a TGI [7] of 26.8 µM and a GI50 [8] of 5.17 µM. The TGI [8] was 17.6 µM, the GI50 [9] was 2.8 µM and the TGI [9] was 9.01 µM. It also gave a GI50 [10] of 4.89 µM, a TGI [10] of 15.5 µM and a GI50 [11] of 3.09 µM. It also gave a TGI [11] of 11 µM, a GI50 [12] of 8.44 µM and a TGI [12] of 20.8 µM. It also gave a GI50 [13] of 4.23 µM, a TGI [13] of 14.2 µM and a GI50 [14] of 11.3 µM. It also gave a TGI [14] of 25.5 µM, a GI50 [15] of 2.4 µM and a TGI [15] of 5.78 µM. It also gave a GI50 [16] of 7.95 µM, a TGI [16] of 20.8 µM and a GI50 [17] of 2.73 µM. It also gave a TGI [17] of 8.17 µM, a GI50 [18] of 4.08 µM and a TGI [18] of 14.9 µM. It also gave a GI50 [19] of 2.84 µM, a TGI [19] of 8.62 µM and a GI50 [20] of 2.29 µM. It also gave a TGI [20] of 4.86 µM, a GI50 [21] of 34.8 µM and a TGI [21] of over 100 µM. It also gave a GI50 [22] of 3.29 µM, a TGI [22] of 8.84 µM and a GI50 [23] of over 100 µM. It also gave a TGI [23] of over 100 µM, a GI50 [24] of 4.71 µM and a TGI [24] of 17.6 µM. For the same molecule, the GI50 [25] was 11.9 µM, the TGI [25] was 25.1 µM and the GI50 [26] was 9.38 µM. For the same molecule, the TGI [26] was 21.3 µM, the GI50 [27] was 8.81 µM and the TGI [27] was 21 µM. The GI50 [28] was 8.37 µM, the TGI [28] was 20.7 µM and the GI50 [29] was 9.44 µM. The TGI [29] was 21.9 µM, the GI50 [30] was 10.2 µM and the TGI [30] was 21.9 µM. For the same molecule, the GI50 [31] was 2.5 µM, the TGI [31] was 4.87 µM and the GI50 [32] was 15.4 µM. For the same molecule, the TGI [32] was 46.9 µM, the GI50 [33] was 15.2 µM and the TGI [33] was 29.5 µM. It also gave a GI50 [34] of 14.3 µM, a TGI [34] of 27.9 µM and a GI50 [35] of 11.8 µM. It also gave a TGI [35] of 27.3 µM, a GI50 [36] of 5.69 µM and a TGI [36] of 18 µM. The GI50 [37] was 2.45 µM, the TGI [37] was 5.19 µM and the GI50 [38] was 13.1 µM. The TGI [38] was 26 µM, the GI50 [39] was 14.1 µM and the TGI [39] was 39.9 µM. It also gave a GI50 [40] of 3.03 µM, a TGI [40] of 8.04 µM and a GI50 [41] of 5.23 µM. It also gave a TGI [41] of 17 µM, a GI50 [42] of 5.31 µM and a TGI [42] of 16.6 µM. For the same molecule, the GI50 [43] was 20 µM, the TGI [43] was 37.2 µM and the GI50 [44] was 1.96 µM. The TGI [44] was 3.68 µM, the GI50 [45] was 2.4 µM and the TGI [45] was 5.67 µM. It also gave a GI50 [46] of 11.1 µM, a TGI [46] of 30 µM and a GI50 [47] of 18.6 µM. It also gave a TGI [47] of 43.8 µM, a GI50 [48] of 4.69 µM and a TGI [48] of 18.3 µM. The GI50 [49] was 19.1 µM, the TGI [49] was 37.5 µM and the GI50 [50] was 5.43 µM. The TGI [50] was 19.1 µM, the GI50 [51] was 10.3 µM and the TGI [51] was 22.3 µM. It also gave a GI50 [52] of 3.51 µM, a TGI [52] of 12.2 µM and a GI50 [53] of 12.4 µM. For the same molecule, the TGI [53] was 25.2 µM, the GI50 [54] was 3.38 µM and the TGI [54] was 11.7 µM.
CN1CCc2cc3c(cc2C1O)OCO3 (stereo not given) was tested, and the GI50 [55] was over 100 µM, the TGI [55] was over 100 µM and the GI50 [1] was over 100 µM. The TGI [1] was over 100 µM, the GI50 [2] was over 100 µM and the TGI [2] was over 100 µM. It also gave a GI50 [3] of over 100 µM, a TGI [3] of over 100 µM and a GI50 [4] of over 100 µM. It also gave a TGI [4] of over 100 µM, a GI50 [5] of over 100 µM and a TGI [5] of over 100 µM. The GI50 [6] was over 100 µM, the TGI [6] was over 100 µM and the GI50 [7] was over 100 µM. For the same molecule, the TGI [7] was over 100 µM, the GI50 [8] was over 100 µM and the TGI [8] was over 100 µM. For the same molecule, the GI50 [9] was over 100 µM, the TGI [9] was over 100 µM and the GI50 [10] was over 100 µM. For the same molecule, the TGI [10] was over 100 µM, the GI50 [11] was over 100 µM and the TGI [11] was over 100 µM. It also gave a GI50 [12] of over 100 µM, a TGI [12] of over 100 µM and a GI50 [13] of over 100 µM. For the same molecule, the TGI [13] was over 100 µM, the GI50 [14] was over 100 µM and the TGI [14] was over 100 µM. It also gave a GI50 [15] of over 100 µM, a TGI [15] of over 100 µM and a GI50 [16] of over 100 µM. For the same molecule, the TGI [16] was over 100 µM, the GI50 [17] was over 100 µM and the TGI [17] was over 100 µM. It also gave a GI50 [56] of over 100 µM, a TGI [56] of over 100 µM and a GI50 [19] of over 100 µM. For the same molecule, the TGI [19] was over 100 µM, the GI50 [20] was over 100 µM and the TGI [20] was over 100 µM. The GI50 [21] was over 100 µM, the TGI [21] was over 100 µM and the GI50 [22] was over 100 µM. For the same molecule, the TGI [22] was over 100 µM, the GI50 [23] was over 100 µM and the TGI [23] was over 100 µM. The GI50 [24] was over 100 µM, the TGI [24] was over 100 µM and the GI50 [25] was over 100 µM. The TGI [25] was over 100 µM, the GI50 [26] was over 100 µM and the TGI [26] was over 100 µM. The GI50 [27] was over 100 µM, the TGI [27] was over 100 µM and the GI50 [28] was over 100 µM. The TGI [28] was over 100 µM, the GI50 [29] was over 100 µM and the TGI [29] was over 100 µM. The GI50 [30] was over 100 µM, the TGI [30] was over 100 µM and the GI50 [31] was over 100 µM. The TGI [31] was over 100 µM, the GI50 [32] was over 100 µM and the TGI [32] was over 100 µM. The GI50 [33] was over 100 µM, the TGI [33] was over 100 µM and the GI50 [34] was over 100 µM. For the same molecule, the TGI [34] was over 100 µM, the GI50 [35] was over 100 µM and the TGI [35] was over 100 µM. It also gave a GI50 [36] of over 100 µM, a TGI [36] of over 100 µM and a GI50 [37] of over 100 µM. For the same molecule, the TGI [37] was over 100 µM, the GI50 [38] was over 100 µM and the TGI [38] was over 100 µM. The GI50 [39] was over 100 µM, the TGI [39] was over 100 µM and the GI50 [40] was over 100 µM. For the same molecule, the TGI [40] was over 100 µM, the GI50 [41] was over 100 µM and the TGI [41] was over 100 µM. For the same molecule, the GI50 [42] was over 100 µM, the TGI [42] was over 100 µM and the GI50 [43] was over 100 µM. For the same molecule, the TGI [43] was over 100 µM, the GI50 [44] was over 100 µM and the TGI [44] was over 100 µM. The GI50 [45] was over 100 µM, the TGI [45] was over 100 µM and the GI50 [46] was over 100 µM. It also gave a TGI [46] of over 100 µM, a GI50 [48] of over 100 µM and a TGI [48] of over 100 µM. For the same molecule, the GI50 [49] was over 100 µM, the TGI [49] was over 100 µM and the GI50 [50] was over 100 µM. It also gave a TGI [50] of over 100 µM, a GI50 [57] of over 100 µM and a TGI [57] of over 100 µM. The GI50 [51] was over 100 µM, the TGI [51] was over 100 µM and the GI50 [58] was over 100 µM. It also gave a TGI [58] of over 100 µM, a GI50 [52] of over 100 µM and a TGI [52] of over 100 µM. It also gave a GI50 [53] of over 100 µM, a TGI [53] of over 100 µM and a GI50 [54] of over 100 µM. The TGI [54] was over 100 µM.
